In patent US9872875B2, “Component and method for treating viral disease” (Institut Pasteur of Shanghai, Chinese Academy of Sciences, priority 2012, dated 2018):
pEC50: −log10 of the molar value. Where two headings read alike, the source gives them in different places.

Columns and labels:
[1] = test system: EV71 clinical isolate (EV71 FY 573); experiment: EV71 clinical isolate replication in RD cells, viral load by quantitative RT-PCR; assay type: cell-based, Enterovirus 71
Description: RD cells were infected with EV71 clinical isolate (EV71 FY 573) in different E02 concentrations, at the MOI (multiplicity of infection) of 0.1. At 46 h post infection, viral RNA in culture supernatant was extracted, and the relative EV71 viral load was determined by quantitative RT-PCR. Procedures are detailed as follows:
(1) Cell seeding: 24 h prior to infection, RD cells were seeded in 96-well cell culture plates, 5×10^4 cells per well.
(2) Infection: • a. Virus pre-incubated with drug: virus stock solution was diluted to 5×10^4 TCID50/ml with DMEM and dispensed to 96-well plates at 100 μl per well, and 11 μl of E02 dissolved in DMEM at corresponding concentration or DMEM was added, and incubated at 37° C. for 1 h; • b. Cells pre-incubated with drug: cell culture medium was removed from 96-well plates, each well was added 100 μl of DMEM, then added 11 μl of E02 solution at corresponding concentration or DMEM, and incubated at 37° C. for 1 h; • c. After 1 h incubation, drug was discarded from cell culture plates, 111 μl of virus pre-incubated with drug was transferred to cell culture plates, and incubated at 37° C. for 1 h; • d. After incubation, the supernatant was discarded, cells were washed twice with 50 μl of DMEM, each well was added 180 μl of DMEM containing 2% FBS, 20 μl of E02 solution at corresponding concentration or DMEM. Cell culture plates were placed in 37° C., 5% (v/v) carbon dioxide incubator for incubation.
(3) Harvesting virus and RNA extraction: after infection, cells were cultured for 46 h, 140 μl of supernatant was transferred to 96-deep well plates, viral RNA extraction was performed using viral RNA extraction kit (QIAGEN QIAamp Viral RNA Mini Kit, cat #52906) according to standard operating procedures of the kit.
(4) Viral load measurements: EV71 5′UTR gene was detected using ABI Taqman one-step RT-PCR kit (ABI TaqMan® One-Step RT-PCR, cat #4309169) of ABI 7900HT 384-well plates PCR system. EV71 5′UTR quantitative RT-PCR thermal cycling program (Taqman);
(5) PCR CT values were converted to viral load using PCR standard curves (standard curves were obtained by CT values determined by performing RT-PCR on RNA extracted from viruses serially diluted with defined titers at 10-fold).

P2X5 receptor = P2X5 receptor (Homo sapiens, UniProt Q93086); conditions: Table 8, antagonists; cited from earlier work
Sequence of P2X5 receptor (Q93086 whole entry): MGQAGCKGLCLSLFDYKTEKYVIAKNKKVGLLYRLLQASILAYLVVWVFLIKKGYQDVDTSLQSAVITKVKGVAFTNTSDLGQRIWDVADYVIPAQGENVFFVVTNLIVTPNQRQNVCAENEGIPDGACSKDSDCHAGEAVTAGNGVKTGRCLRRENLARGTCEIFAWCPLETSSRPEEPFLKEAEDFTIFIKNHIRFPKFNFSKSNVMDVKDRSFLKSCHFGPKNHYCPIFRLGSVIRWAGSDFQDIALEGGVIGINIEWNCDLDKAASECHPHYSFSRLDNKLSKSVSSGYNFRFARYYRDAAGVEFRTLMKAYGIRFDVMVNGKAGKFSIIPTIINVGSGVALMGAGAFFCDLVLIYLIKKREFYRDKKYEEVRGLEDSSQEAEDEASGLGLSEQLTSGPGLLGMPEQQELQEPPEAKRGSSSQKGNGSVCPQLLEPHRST

P2X3 receptor = target: T1, P2X3 receptor (Homo sapiens, UniProt P56373); conditions: Table 8, antagonists; cited from earlier work
T1 sequence (P56373 1-397): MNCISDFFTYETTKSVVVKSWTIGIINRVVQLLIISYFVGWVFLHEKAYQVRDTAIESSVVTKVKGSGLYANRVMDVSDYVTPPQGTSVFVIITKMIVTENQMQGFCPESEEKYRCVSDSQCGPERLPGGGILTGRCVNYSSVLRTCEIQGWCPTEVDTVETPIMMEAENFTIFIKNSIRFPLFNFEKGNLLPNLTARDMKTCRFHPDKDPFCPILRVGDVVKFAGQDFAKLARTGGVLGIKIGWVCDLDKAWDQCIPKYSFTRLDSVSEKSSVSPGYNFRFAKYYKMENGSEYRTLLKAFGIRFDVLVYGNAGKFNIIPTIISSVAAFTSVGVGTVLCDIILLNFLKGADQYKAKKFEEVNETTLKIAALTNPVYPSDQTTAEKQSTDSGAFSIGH

P2X1 receptor = target: T2, P2X1 receptor (Homo sapiens, UniProt P51575); conditions: cited from earlier work
T2 sequence (P51575 1-399): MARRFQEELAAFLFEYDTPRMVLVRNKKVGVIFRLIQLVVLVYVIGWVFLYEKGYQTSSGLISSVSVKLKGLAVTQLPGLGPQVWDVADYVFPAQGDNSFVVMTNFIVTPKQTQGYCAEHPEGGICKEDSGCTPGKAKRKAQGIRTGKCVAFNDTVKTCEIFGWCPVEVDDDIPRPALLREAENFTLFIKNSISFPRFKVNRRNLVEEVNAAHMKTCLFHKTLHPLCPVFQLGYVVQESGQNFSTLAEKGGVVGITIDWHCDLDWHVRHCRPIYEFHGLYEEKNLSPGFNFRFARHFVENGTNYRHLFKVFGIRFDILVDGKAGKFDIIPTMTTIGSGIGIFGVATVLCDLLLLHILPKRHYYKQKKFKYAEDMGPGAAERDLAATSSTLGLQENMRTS

P2X2 receptor = target: T3, P2X2 receptor (Homo sapiens, UniProt Q9UBL9); conditions: cited from earlier work
T3 sequence (Q9UBL9 1-471): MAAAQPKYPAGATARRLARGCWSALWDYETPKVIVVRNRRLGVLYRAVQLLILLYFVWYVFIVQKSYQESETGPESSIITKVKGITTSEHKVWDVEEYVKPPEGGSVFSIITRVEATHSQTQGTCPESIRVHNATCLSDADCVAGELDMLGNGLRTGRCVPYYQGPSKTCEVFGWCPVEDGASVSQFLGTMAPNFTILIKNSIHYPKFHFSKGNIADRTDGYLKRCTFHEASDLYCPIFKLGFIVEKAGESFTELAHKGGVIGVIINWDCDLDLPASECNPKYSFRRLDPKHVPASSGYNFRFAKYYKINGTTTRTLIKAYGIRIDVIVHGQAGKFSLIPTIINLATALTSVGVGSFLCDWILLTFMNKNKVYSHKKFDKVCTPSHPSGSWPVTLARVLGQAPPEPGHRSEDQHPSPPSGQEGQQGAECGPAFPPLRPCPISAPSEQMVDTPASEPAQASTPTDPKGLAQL

Row | SMILES | pEC50 ([1]; EV71 FY 573, MOI 0.1, 46 h, viral RNA in supernatant, read-out: EC50 (50% effective concentration) for inhibiting EV71 replication in RD cells) | P2X receptors 5 (P2X5 receptor) | P2X receptors 3 (P2X3 receptor) | P2X receptors 1 (P2X1 receptor; Table 8, antagonists) | P2X receptors 2 (P2X2 receptor; Table 8, antagonists) | concentration at which EV71 replication is reduced 10-fold ([1]; EV71 FY 573, RD cells, 46 h) | concentration at which EV71 replication is reduced 100-fold ([1]; EV71 FY 573, RD cells, 46 h) | concentration at which EV71 replication is reduced 1,000-fold ([1]; EV71 FY 573, RD cells, 46 h) | concentration at which EV71 replication is reduced 10,000-fold ([1]; EV71 FY 573, RD cells, 46 h) | pEC50 ([1]; Enterovirus A, EV71, RD, 46 h, read-out: EC50 (50% effective concentration) for inhibiting EV71 replication in RD cells) | pEC50 ([1]; Enterovirus A, EV71, RD cells, summary over RT-PCR, TCID50 and PFU tests, read-out: EC50 that inhibits EV71 clinical isolate (summary of Examples 1-3)) | P2X receptors 1 (P2X1 receptor) | P2X receptors 2 (P2X2 receptor)
1 | Cc1nc(N=Nc2ccc(S(=O)(=O)O)cc2S(=O)(=O)O)c(COP(=O)(O)O)c(C=O)c1O [PPADS, pyridoxal-phosphate-6-azophenyl-2′, 4′-disulphonic acid] | 4.72 | ++ (++: inhibitory concentration = 10~300 nM) | ++ (++: inhibitory concentration = 10~300 nM) | ++ (++: inhibitory concentration = 10~300 nM) | ++ (++: inhibitory concentration = 10~300 nM) |  |  |  |  |  |  |  | 
2 | Cc1ccc(C(=O)Nc2ccc(S(=O)(=O)O)c3cc(S(=O)(=O)O)cc(S(=O)(=O)O)c23)cc1NC(=O)c1cccc(NC(=O)Nc2cccc(C(=O)Nc3cc(C(=O)Nc4ccc(S(=O)(=O)O)c5cc(S(=O)(=O)O)cc(S(=O)(=O)O)c45)ccc3C)c2)c1 [E02, Suramin Sodium] |  | ++ (++: inhibitory concentration = 10~300 nM) | + (+: inhibitory concentration >300 nM) |  |  | 3.44 μM | 5.19 µM | 6.45 µM | 7.63 µM | 5.16 | > 5.16 | ++ (key: −: no activity; +: inhibitory concentration >300 nM; ++: inhibitory concentration = 10~300 nM; +++: inhibitory concentration <10 nM) | + (key: −: no activity; +: inhibitory concentration >300 nM; ++: inhibitory concentration = 10~300 nM; +++: inhibitory concentration <10 nM)
